Measured values reported in ChEMBL document CHEMBL1149789, “SAR and QSAR studies: modelling of new DAPY derivatives” (Eur J Med Chem, 2008).

How the values were obtained:
[1] = system: Human immunodeficiency virus; assay: Inhibition of HIV reverse transcriptase
[2] = Partition coefficient, log P of the compound; type: physicochemical; details: octanol/water

EC50 [1] [nM] | logP ([2]; read-out: logP) | SMILES | logP [2]
0.6 | 0.94 | N#Cc1ccc(Nc2nccc(Nc3c(Br)cc(F)cc3Br)n2)cc1 | –
2.7 | 1.8 | Cc1cc(C)c(Nc2nc(Nc3ccc(C#N)cc3)ncc2Cl)c(C)c1 | –
1 | 1.74 | Cc1cc(C)c(Nc2nc(Nc3ccc(C#N)cc3)ncc2C#N)c(C)c1 | –
0.7 | 0.77 | N#Cc1ccc(Nc2nccc(Nc3c(Cl)cc(Cl)cc3Cl)n2)cc1 | –
3.6 | 2.42 | Cc1cc(C)c(Sc2ccnc(Nc3ccc(C#N)cc3)n2)c(C)c1 | –
2.5 | 2.36 | C=Cc1cnc(Nc2ccc(C#N)cc2)nc1Nc1c(C)cc(C#N)cc1C | –
0.7 | 1.69 | Cc1cc(Br)c(Nc2ccnc(Nc3ccc(C#N)cc3)n2)c(Br)c1 | –
1.4 | 1.54 | Cc1cc(C#N)cc(C)c1Oc1nc(Nc2ccc(C#N)cc2)ncc1Cl | –
1.7 | 2.17 | Cc1cc(C)c(Nc2nc(Nc3ccc(C#N)cc3)ncc2C)c(C)c1 | –
5.5 | 1.79 | C#Cc1cc(C)c(Oc2ccnc(Nc3ccc(C#N)cc3)n2)c(C)c1 | –
2.1 | 1.52 | Cc1cc(Cl)cc(C)c1Nc1ccnc(Nc2ccc(C#N)cc2)n1 | –
1 | 1.9 | Cc1cc(C)c(Nc2ccnc(Nc3ccc(C#N)cc3)n2)c(C)c1 [DAPIVIRINE] | –
0.7 | 1.74 | Cc1cccc(C)c1Nc1ccnc(Nc2ccc(C#N)cc2)n1 | –
1 | 1.14 | Cc1cc(Cl)cc(Cl)c1Nc1ccnc(Nc2ccc(C#N)cc2)n1 | –
1.4 | 1.82 | Cc1cc(C#N)cc(C)c1Oc1nc(Nc2ccc(C#N)cc2)nc(N)c1Br [ETRAVIRINE] | –
2.3 | 1.79 | Cc1cc(Br)cc(C)c1Nc1ccnc(Nc2ccc(C#N)cc2)n1 | –
2.9 | 1.97 | Cc1cc(Br)cc(C)c1Oc1ccnc(Nc2ccc(C#N)cc2)n1 | –

SMILES | EC50 [1] [nM] | logP ([2]; read-out: logP) | logP [2]
Cc1cc(Br)cc(C)c1Sc1ccnc(Nc2ccc(C#N)cc2)n1 | 5.7 | 2.31 | –
Cc1cc(C#N)cc(C)c1Nc1nc(Nc2ccc(C#N)cc2)ncc1C#N | 0.5 | 1.31 | –
C#Cc1cnc(Nc2ccc(C#N)cc2)nc1Nc1c(C)cc(C)cc1C | – | 1.89 | –
Cc1cc(C#N)cc(C)c1Oc1nc(Nc2ccc(C#N)cc2)ncc1N | 1 | 0.05 | –
CC(=O)Nc1cnc(Nc2ccc(C#N)cc2)nc1Oc1c(C)cc(C#N)cc1C | – | -0.12 | –
Cc1cc(C#N)cc(C)c1Nc1nc(Nc2ccc(C#N)cc2)ncc1Br | 0.4 | 1.64 | –
Cc1cc(C#N)cc(C)c1Oc1nc(Nc2ccc(C#N)cc2)ncc1Br | 1.4 | 1.82 | –
Cc1cc(C#N)cc(C)c1Nc1ccnc(Nc2ccc(C#N)cc2)n1 | 0.4 | 1.47 | –
Cc1cc(C)c(Oc2ccnc(Nc3ccc(C#N)cc3)n2)c(C)c1 | 2.9 | 2.07 | –
Cc1cc(C)c(Nc2nc(Nc3ccc(C#N)cc3)ncc2Br)c(C)c1 | 5.5 | 2.07 | –
Cc1cc(C#N)cc(C)c1Oc1ccnc(Nc2ccc(C#N)cc2)n1 | 1.1 | 1.64 | –
Cc1cnc(Nc2ccc(C#N)cc2)nc1Nc1c(C)cc(C#N)cc1C | 0.8 | 1.74 | –
Cc1cc(C#N)cc(C)c1Nc1nc(Nc2ccc(C#N)cc2)ncc1Cl | 1.2 | 1.37 | –
Cc1cc(C#N)cc(C)c1Oc1nc(Nc2ccc(C#N)cc2)ncc1[N+](=O)[O-] | 18 | – | -0.98
